Literature values in patent publication US20010009917A1, “Methods and compositions for treating asthma, atherosclerosis and inflammatory diseases using optically pure (-zileuton” (priority 1993, published 2001).
Blank lines part the entries; values can stand above or below the compound they belong to.

What was measured:
[1] = dog liver microsomes
LTB4 = conditions: human volunteers, 800 mg p.o. twice per day for four weeks
[2] = biological target: T1, human platelet 12-lipoxygenase (Homo sapiens, UniProt P18054)
T1 construct: the supernatant containing the 12-lipoxygenase activity stored frozen until used; from tissue; host or cells: human platelets, sonicated lysate supernatant
T1 sequence (P18054 1-663): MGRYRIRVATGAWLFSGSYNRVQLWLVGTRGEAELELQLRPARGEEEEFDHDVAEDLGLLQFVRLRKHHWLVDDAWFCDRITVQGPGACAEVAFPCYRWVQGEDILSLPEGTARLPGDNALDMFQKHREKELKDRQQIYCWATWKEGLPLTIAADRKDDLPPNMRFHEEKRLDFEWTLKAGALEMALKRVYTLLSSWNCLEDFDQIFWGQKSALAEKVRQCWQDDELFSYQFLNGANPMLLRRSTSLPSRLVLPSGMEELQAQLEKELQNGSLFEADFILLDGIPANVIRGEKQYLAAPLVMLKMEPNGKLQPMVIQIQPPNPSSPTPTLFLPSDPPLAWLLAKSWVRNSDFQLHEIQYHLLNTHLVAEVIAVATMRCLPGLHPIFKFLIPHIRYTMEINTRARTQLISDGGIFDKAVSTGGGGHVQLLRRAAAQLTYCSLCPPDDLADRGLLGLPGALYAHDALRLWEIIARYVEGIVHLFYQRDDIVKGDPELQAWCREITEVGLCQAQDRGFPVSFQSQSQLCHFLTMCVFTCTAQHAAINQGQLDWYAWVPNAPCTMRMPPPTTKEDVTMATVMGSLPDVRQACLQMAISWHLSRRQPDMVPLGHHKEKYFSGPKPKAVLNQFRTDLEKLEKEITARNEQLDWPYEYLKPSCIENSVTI

[3] = biological target: T2, sheep seminal vesicle cyclooxygenase (Ovis aries, UniProt P05979)
T2 construct: incubations with sheep seminal vesicle gland microsomes (2 mg/mL); from tissue; host or cells: sheep seminal vesicle gland microsomes
T2 sequence (P05979 25-600): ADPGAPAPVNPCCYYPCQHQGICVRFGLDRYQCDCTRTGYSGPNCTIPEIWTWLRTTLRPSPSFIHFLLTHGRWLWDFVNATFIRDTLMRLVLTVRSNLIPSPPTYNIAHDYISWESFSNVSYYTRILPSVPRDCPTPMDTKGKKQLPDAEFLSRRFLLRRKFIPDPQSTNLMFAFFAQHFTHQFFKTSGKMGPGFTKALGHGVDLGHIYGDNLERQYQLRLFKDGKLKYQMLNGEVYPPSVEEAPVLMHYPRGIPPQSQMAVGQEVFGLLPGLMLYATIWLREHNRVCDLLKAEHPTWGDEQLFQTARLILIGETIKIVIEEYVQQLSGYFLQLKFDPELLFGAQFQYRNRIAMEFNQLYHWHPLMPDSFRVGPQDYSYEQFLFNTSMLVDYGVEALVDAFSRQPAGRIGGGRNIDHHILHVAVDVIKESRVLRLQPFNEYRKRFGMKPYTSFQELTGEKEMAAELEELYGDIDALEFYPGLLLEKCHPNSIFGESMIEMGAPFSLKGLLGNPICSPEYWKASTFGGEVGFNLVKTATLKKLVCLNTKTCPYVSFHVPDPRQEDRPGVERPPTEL

glucuronidation [1]: selective glucuronidation
Compound: C[C@@H](c1cc2ccccc2s1)N(O)C(N)=O [S-(−)-zileuton]

Compound: CC(c1cc2ccccc2s1)N(O)C(N)=O (racemic) [racemic zileuton, N-(1-benzo[b]thien-2-ylethyl)-N-hydroxyurea]
decreases in LTB4 (LTB4): 75 to 85%
patients reporting an adverse event during the four week trial (four week trial): One hundred
improvement in symptoms of rheumatoid arthritis (human volunteers, 800 mg p.o. twice per day for four weeks): statistically significant improvement
inhibitory effect on human platelet 12-lipoxygenase [2]: little inhibitory effect
inhibitory effect on sheep seminal vesicle cyclooxygenase [3]: little inhibitory effect

effect on glucuronidation of S-(−)-zileuton [1]: enhancement of that reaction
Compound: C[C@H](c1cc2ccccc2s1)N(O)C(N)=O [(+)-zileuton, (+) isomer of N-(1-benzo[b]thien-2-ylethyl)-N-hydroxyurea]

Compound: CC(C)NC[C@H](O)COc1cccc2ccccc12 [propranolol]
potency relative to the D-enantiomer (beta-adrenergic): 100 times
